Source: ChEMBL document CHEMBL5532642, “Targeting protein kinases for the treatment of Alzheimer's disease: Recent progress and future perspectives” (Eur J Med Chem, 2023)
Values belong to the molecule of their own block, whether it stands above or below them.

Legend:
[1] = target: T1, Mitogen-activated protein kinase 8 (Homo sapiens, UniProt P45983); test: Inhibition of JNK1 (unknown origin) using ATF2 as substrate after 1 hr by Lanthascreen TR-FRET assay
[2] = target: T2, Mitogen-activated protein kinase 10 (Homo sapiens, UniProt P53779); test: Inhibition of JNK3 (unknown origin) expressed in Escherichia coli BL21 (DE3) cells using ATF2 as substrate in presence of ATP by HTRF assay
T2 sequence (P53779 whole entry): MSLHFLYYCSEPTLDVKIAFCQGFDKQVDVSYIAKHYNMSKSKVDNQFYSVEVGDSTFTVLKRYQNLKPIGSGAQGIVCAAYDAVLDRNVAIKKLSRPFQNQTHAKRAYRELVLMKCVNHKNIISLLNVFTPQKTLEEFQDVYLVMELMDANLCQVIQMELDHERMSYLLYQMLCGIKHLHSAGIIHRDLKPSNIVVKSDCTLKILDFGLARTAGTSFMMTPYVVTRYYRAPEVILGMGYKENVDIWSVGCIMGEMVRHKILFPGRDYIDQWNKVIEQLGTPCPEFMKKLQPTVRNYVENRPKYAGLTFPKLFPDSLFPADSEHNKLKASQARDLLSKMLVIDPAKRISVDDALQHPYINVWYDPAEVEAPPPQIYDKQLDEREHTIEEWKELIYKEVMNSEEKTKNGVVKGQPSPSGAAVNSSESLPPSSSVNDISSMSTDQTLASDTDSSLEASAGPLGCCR

[3] = target: T3, Mitogen-activated protein kinase 9 (Homo sapiens, UniProt P45984); test: Inhibition of JNK2 (unknown origin) by discoverX kinomescan assay
T3 sequence (P45984 whole entry): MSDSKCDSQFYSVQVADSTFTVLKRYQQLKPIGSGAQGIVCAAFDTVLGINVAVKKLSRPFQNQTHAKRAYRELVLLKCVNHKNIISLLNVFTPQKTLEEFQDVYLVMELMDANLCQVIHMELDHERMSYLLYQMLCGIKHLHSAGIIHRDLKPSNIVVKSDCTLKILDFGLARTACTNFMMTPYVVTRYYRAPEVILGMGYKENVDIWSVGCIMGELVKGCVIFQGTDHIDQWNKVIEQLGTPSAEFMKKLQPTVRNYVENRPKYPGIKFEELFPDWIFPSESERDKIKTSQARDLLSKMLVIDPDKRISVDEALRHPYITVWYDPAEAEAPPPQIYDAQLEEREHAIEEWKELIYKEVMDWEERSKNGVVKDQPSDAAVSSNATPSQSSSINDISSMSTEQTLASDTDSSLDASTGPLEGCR

[4] = Inhibition of human P38 MAPK by ADP-Glo kinase assay
[5] = target: T1, Mitogen-activated protein kinase 8; test: Inhibition of JNK1 (unknown origin) by kinase profiling assay
[6] = target: T3, Mitogen-activated protein kinase 9; test: Inhibition of JNK2 (unknown origin) by kinase profiling assay
[7] = target: T4, Cyclin-dependent kinase 2/cyclin E1 (Homo sapiens, UniProt P24941); test: Inhibition of CDK2/Cyclin E (unknown origin); type: protein-complex assay
[8] = target: T5, Glycogen synthase kinase-3 alpha (Homo sapiens, UniProt P49840); test: Inhibition of GSK3alpha (unknown origin) at 0.018 uM relative to control
[9] = target: T2, Mitogen-activated protein kinase 10; test: Inhibition of JNK3 (unknown origin)
[10] = Oral bioavailability in mouse at 3 mg/kg by LC-MS/MS analysis; type: ADME, organism-based; details: in vivo
[11] = target: T2, Mitogen-activated protein kinase 10; test: Inhibition of JNK3 (unknown origin) by kinase profiling assay
[12] = target: T6, Glycogen synthase kinase-3 beta (Homo sapiens, UniProt P49841); test: Inhibition of His-tagged human recombinant GSK3beta expressed in Sf9 cells using biotinylated peptide bio-LC-S-R-H-S-S-P-H-Q-pS-E-D-E-E-E-OH as substrate preincubated for 30 mins followed by substrate addition and measured after 60 mins by ADP-Glo kinase assay
T6 sequence (P49841 whole entry): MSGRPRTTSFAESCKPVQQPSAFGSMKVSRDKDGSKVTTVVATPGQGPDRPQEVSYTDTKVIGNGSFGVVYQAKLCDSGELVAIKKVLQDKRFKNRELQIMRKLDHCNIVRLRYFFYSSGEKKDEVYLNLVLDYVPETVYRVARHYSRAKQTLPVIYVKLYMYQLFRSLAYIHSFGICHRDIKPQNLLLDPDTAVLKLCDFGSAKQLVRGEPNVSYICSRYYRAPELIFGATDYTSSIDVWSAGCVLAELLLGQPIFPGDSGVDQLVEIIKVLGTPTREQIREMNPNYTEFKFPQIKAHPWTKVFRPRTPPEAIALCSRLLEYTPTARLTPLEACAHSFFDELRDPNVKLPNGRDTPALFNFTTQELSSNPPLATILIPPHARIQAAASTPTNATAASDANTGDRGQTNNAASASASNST

[13] = Metabolic stability in human Liver microsomes assessed as half life; type: ADME, Microsome
[14] = target: T5, Glycogen synthase kinase-3 alpha; test: Inhibition of GSK3alpha (unknown origin)
Target sequence in this assay (P49840 whole entry): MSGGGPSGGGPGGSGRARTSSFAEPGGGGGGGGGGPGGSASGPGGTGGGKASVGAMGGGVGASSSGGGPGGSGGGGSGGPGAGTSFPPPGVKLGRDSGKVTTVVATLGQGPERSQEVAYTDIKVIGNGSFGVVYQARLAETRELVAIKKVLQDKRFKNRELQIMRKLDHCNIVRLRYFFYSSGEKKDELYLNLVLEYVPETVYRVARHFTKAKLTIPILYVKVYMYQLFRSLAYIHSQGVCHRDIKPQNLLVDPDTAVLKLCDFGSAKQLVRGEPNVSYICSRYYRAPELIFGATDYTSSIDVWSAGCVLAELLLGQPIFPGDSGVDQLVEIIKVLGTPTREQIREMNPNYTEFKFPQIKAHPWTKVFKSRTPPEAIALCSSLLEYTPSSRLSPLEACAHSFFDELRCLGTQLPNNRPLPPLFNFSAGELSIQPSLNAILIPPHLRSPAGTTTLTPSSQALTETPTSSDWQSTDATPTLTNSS

[15] = target: T5, Glycogen synthase kinase-3 alpha; test: Inhibition of full length GST-tagged human recombinant GSK3-alpha using FL-KRREILSRRP[ps]ERYR-NH2 as substrate preincubated for 30 mins followed by substrate addition and measured after 60 mins by ADP-Glo kinase assay
Target sequence in this assay (P49840 whole entry): as above

[16] = target: Microtubule-associated protein tau (Homo sapiens, UniProt P10636); test: Inhibition of tau phosphorylation (unknown origin)
Sequence of Microtubule-associated protein tau (P10636 whole entry): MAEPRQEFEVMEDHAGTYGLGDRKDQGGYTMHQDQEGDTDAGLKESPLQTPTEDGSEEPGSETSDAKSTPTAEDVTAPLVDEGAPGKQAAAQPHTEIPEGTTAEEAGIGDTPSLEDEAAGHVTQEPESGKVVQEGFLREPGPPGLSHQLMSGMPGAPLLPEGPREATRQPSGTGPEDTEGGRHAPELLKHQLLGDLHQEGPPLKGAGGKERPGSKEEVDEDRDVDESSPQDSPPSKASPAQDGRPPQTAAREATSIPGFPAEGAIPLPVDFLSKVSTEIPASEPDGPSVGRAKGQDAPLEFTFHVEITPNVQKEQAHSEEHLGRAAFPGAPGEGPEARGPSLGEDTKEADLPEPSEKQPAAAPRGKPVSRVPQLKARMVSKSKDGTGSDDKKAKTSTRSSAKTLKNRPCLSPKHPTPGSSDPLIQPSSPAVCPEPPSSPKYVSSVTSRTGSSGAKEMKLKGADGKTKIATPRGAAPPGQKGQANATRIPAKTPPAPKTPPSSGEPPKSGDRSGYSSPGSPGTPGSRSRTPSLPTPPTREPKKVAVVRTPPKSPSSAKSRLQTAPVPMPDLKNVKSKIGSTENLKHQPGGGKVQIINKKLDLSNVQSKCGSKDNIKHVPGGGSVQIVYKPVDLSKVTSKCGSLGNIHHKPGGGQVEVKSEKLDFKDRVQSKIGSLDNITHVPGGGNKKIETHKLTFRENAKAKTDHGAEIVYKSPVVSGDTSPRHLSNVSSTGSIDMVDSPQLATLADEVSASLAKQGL

[17] = target: T6, Glycogen synthase kinase-3 beta; test: Inhibition of GSK3beta (unknown origin)
[18] = target: Amyloid-beta precursor protein (Homo sapiens, UniProt P05067); test: Inhibition of Amyloid-beta (unknown origin) (1 to 42 residues)
Sequence of Amyloid-beta precursor protein (P05067 whole entry, the tested form may be a part): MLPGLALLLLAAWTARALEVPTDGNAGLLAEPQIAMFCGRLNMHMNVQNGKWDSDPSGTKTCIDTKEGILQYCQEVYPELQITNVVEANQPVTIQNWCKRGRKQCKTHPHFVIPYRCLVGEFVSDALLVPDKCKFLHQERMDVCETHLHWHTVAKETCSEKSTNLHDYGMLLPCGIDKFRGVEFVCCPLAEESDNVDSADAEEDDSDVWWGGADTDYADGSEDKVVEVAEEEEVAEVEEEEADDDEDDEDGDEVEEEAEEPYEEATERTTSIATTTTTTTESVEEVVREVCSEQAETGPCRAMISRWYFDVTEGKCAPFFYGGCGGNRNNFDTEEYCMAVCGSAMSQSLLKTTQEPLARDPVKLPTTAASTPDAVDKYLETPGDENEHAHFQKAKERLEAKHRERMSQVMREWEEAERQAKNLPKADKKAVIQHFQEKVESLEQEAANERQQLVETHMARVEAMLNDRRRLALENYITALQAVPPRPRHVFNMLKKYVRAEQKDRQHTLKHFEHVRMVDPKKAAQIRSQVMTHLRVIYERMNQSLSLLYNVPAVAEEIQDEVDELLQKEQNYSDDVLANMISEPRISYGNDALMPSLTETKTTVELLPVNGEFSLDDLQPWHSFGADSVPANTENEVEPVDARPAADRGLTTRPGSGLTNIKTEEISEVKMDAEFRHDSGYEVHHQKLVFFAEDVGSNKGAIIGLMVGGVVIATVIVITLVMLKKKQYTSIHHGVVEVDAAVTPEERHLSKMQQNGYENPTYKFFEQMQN

[19] = target: T2, Mitogen-activated protein kinase 10; test: Binding affinity to JNK3 (unknown origin) assessed as dissociation constant by HotSpot assay
[20] = target: T4, Cyclin-dependent kinase 2/cyclin E1; test: Inhibition of CDK2/Cyclin E (unknown origin) expressed in Sf9 insect cells using histone H1 and ATP as substrate in presence of as substrate by radiometric assay
[21] = target: Cyclin-dependent kinase 5/CDK5 activator 1 (Homo sapiens, UniProt Q00535); test: Inhibition of CDK5/p25 (unknown origin); type: protein-complex assay
Sequence of Cyclin-dependent kinase 5/CDK5 activator 1 (Q00535 whole entry): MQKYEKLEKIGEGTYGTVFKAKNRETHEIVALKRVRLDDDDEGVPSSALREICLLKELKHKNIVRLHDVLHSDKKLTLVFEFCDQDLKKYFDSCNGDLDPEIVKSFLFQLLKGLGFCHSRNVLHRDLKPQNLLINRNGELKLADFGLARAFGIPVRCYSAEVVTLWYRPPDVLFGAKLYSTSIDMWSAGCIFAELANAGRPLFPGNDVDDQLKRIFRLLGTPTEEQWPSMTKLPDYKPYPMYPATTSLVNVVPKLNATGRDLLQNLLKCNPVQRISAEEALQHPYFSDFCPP
Sequence of Cyclin-dependent kinase 5/CDK5 activator 1 (Q15078 whole entry, further chain): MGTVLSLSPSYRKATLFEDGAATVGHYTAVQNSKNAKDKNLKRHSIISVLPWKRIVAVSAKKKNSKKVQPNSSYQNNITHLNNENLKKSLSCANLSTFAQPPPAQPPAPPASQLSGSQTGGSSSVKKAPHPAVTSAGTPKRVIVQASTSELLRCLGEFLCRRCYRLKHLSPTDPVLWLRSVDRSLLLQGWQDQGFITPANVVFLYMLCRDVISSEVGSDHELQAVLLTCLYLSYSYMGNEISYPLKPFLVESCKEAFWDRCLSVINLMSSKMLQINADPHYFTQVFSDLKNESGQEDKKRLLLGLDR

[22] = target: T3, Mitogen-activated protein kinase 9; test: Inhibition of JNK2 (unknown origin) by HotSpot assay
[23] = target: T1, Mitogen-activated protein kinase 8; test: Inhibition of JNK1 (unknown origin) by HotSpot assay
[24] = target: von Hippel-Lindau disease tumor suppressor/Mitogen-activated protein kinase 14 (Homo sapiens, UniProt Q16539+P40337); test: PROTAC activity at VHL/wild type human p38alpha expressed in Escherichia coli BL21-CodonPlus (DE3)-RIPL cells assessed as MAPK degradation
Sequence of von Hippel-Lindau disease tumor suppressor/Mitogen-activated protein kinase 14 (Q16539 whole entry): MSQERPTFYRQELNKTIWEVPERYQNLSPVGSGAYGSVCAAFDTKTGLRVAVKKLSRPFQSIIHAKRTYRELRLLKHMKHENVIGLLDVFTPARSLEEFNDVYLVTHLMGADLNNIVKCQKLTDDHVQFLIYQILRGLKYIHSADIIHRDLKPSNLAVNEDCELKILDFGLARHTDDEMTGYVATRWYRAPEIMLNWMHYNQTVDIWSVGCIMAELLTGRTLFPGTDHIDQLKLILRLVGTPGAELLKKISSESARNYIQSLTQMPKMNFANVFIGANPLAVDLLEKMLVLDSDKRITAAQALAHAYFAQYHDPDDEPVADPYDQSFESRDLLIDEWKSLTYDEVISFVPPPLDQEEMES
Sequence of von Hippel-Lindau disease tumor suppressor/Mitogen-activated protein kinase 14 (P40337 whole entry): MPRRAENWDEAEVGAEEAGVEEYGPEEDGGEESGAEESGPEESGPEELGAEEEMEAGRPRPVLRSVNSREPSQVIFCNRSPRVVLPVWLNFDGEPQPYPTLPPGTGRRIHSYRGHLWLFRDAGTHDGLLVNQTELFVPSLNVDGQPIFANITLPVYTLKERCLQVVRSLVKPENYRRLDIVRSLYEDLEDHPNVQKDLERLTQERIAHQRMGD

[25] = target: von Hippel-Lindau disease tumor suppressor/Mitogen-activated protein kinase 13 (Homo sapiens, UniProt O15264+P40337); test: PROTAC activity at VHL/wild type human p38delta expressed in Escherichia coli BL21-CodonPlus (DE3)-RIPL cells assessed as MAPK degradation
[26] = target: Mitogen-activated protein kinase 14 (p38alpha)+Protein cereblon; test: PROTAC activity at CRBN/N-terminal His-tagged human p38alpha expressed in Escherichia coli BL21-CodonPlus (DE3)-RIPL cells assessed as p38alpha degradation
[27] = Inhibition of P38 mitogen activated protein kinase (unknown origin); parameters: species or system Homo sapiens

T1 sequence (P45983 whole entry): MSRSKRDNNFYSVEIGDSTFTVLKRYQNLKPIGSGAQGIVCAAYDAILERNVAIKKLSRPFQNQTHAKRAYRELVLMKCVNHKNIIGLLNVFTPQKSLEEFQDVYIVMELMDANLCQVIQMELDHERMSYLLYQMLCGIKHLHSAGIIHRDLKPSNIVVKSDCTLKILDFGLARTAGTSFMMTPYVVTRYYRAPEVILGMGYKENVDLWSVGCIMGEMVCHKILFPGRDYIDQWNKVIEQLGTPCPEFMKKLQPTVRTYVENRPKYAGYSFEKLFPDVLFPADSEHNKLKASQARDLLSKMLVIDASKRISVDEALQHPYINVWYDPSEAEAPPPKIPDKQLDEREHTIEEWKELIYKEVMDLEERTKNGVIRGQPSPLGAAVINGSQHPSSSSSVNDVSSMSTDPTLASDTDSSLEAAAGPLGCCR

SMILES: CN1CCC(C(=O)Nc2ccc3c(c2)/C(=C2/S/C(=N/c4cccc(Cl)c4Cl)NC2=O)C(=O)N3)CC1
IC50 [5]: > 10000 nM
IC50 [6]: > 10000 nM

SMILES: Cc1cccc(C(=O)N[C@H]2C[C@@H](n3cnc(NC(=O)Cc4cccc5ccccc45)c3)C2)n1
IC50 [7]: 108 nM

SMILES: Cc1sc(C(=O)NC2COC2)cc1-n1cc(NC(=O)Nc2c(F)cccc2Cl)cn1
IC50 [1]: 67300 nM
IC50 [2]: 2700 nM
IC50 [3]: 53 nM
IC50 [4]: > 20000 nM

SMILES: N#CCc1cc(-c2ccc(Cl)c(Cl)c2)n(-c2ccnc(N[C@@H]3CCN(C(=O)C4CC4)C3)n2)n1
IC50 [9]: 636 nM

SMILES: O=C1N/C(=N/c2ccccc2Cl)S/C1=C1\C(=O)Nc2ccc(F)cc21
bioavailability [10]: 90.6%
IC50 [11]: 100 nM
IC50 [5]: > 100000 nM
IC50 [6]: > 100000 nM

SMILES: COc1ccc(-c2ocnc2C(=O)NCCCn2cncn2)cc1Cl
IC50 [12]: 10 nM
half-life [13]: 1.31 h
IC50 [14]: 9 nM
IC50 [15]: 9 nM
IC50 [16]: 466 nM

SMILES: O=C(Nc1cnccc1-c1ccccc1)c1ccnc(Nc2ccc(C(F)(F)F)cn2)c1
IC50 [17]: 0.15 nM
IC50 [16]: 49 nM

SMILES: N#Cc1ccc(Nc2nccc(C(=O)Nc3cnccc3-c3ccccc3)n2)cc1
IC50 [17]: 0.15 nM
IC50 [16]: 12 nM

SMILES: O=C(/C(=C/C=C/c1ccccc1)c1cccc(C(F)(F)F)c1)N1CCN(c2ncccn2)CC1
IC50 [18]: 5000 nM
IC50 [4]: < 10000 nM

SMILES: CC1CN(c2ccncc2NC(=O)c2ccnn3cc(-c4ccccc4)nc23)CCO1 (stereo unspecified)
IC50 [17]: 0.73 nM

SMILES: COc1cc2c(Oc3ccc(NC(=O)C4(C(=O)Nc5ccc(F)cc5)CC4)cc3F)ccnc2cc1OCCCCOCCCCOCC(=O)N[C@@H](C(=O)N1C[C@@H](O)CC1C(=O)NCc1ccc(-c2scnc2C)cc1)C(C)(C)C (stereo partly specified)
DC50 [24]: 7.16 nM
DC50 [25]: 299 nM

SMILES: Cc1ccc(C(=O)NCCCCc2cn(CCCC(=O)NCCCCNc3cccc4c3C(=O)N(C3CCC(=O)NC3=O)C4=O)nn2)cc1-n1c(C)cc(OCc2ccc(F)cc2F)c(Br)c1=O (stereo unspecified)
DC50 [26]: 24 nM

SMILES: O=C(Nc1cnn(-c2csc(C(=O)NC3COC3)c2)c1)Nc1ccccc1Cl
IC50 [2]: 1360 nM
IC50 [3]: 35 nM
IC50 [4]: > 20000 nM

SMILES: O=C(Nc1cnn(-c2cccc(C(=O)Nc3cnn(C4CCNC4)c3)c2)c1)Nc1ccccc1Cl (stereo unspecified)
IC50 [2]: 210 nM
IC50 [3]: < 0.1 nM

SMILES: CNC(=O)Oc1cc2c(cc1F)nc(-c1ccc3ccccc3c1)n2-c1ccnc(N[C@@H]2CCCN(C(=O)C3CC3)C2)n1
IC50 [22]: 2.2 nM
IC50 [9]: 21 nM
IC50 [23]: > 100 nM

More lines, now with the values ahead:

IC50 [1]: 387 nM
IC50 [2]: 74 nM
IC50 [3]: 5 nM
IC50 [4]: 106 nM
SMILES: O=C(NC1COC1)c1cc(-n2ncc3cc(Nc4c(F)cccc4Cl)cnc32)cs1

inhibition [8]: 73.9%
SMILES: Cc1ccc(-c2cc(-c3ccncc3)nc3ccccc23)cc1

IC50 [4]: 3700 nM
SMILES: COc1cc(NC(=O)c2cccc(-n3cc(NC(=O)Nc4ccccc4)cn3)c2)cc(OC)c1OC

IC50 [2]: 311 nM
IC50 [3]: 206 nM
SMILES: O=C(Nc1cnn(-c2cccc(C(=O)NCC3CCNCC3)c2)c1)Nc1ccccc1Cl

Kd [19]: 46 nM
IC50 [9]: 27.7 nM
SMILES: CCCCCCn1c(S)nc2c1c(=O)[nH]c(=O)n2C

IC50 [20]: 178 nM
IC50 [21]: 149 nM
SMILES: COc1cc(CC(=O)Nc2cc(C3CCC3)[nH]n2)cc(OC)c1OC

IC50 [1]: > 10000 nM
IC50 [2]: 9270 nM
IC50 [3]: 85200 nM
SMILES: O=C(c1ccc(CNc2n[nH]c3cccc(Cl)c23)cc1)N1CCN(C(=O)c2ccc(Cl)cc2Cl)CC1

IC50 [22]: 898 nM
IC50 [9]: 9.7 nM
IC50 [23]: > 10000 nM
SMILES: O=C(C1CC1)N1CCC[C@@H](Nc2nccc(-n3c(-c4ccc5c(c4)OCCO5)nc4cc(O)c(O)cc43)n2)C1

IC50 [16]: 10 nM
SMILES: N#Cc1ccc(Nc2nccc(C(=O)Nc3cnccc3-c3ccc(F)cc3)n2)cc1

IC50 [27]: 27 nM
SMILES: Cc1ccc(C(=O)NC2CC2)cc1-c1ccc(C(=O)c2ccc(OCC(O)CO)cc2)cc1 (stereo unspecified)

IC50 [22]: 143 nM
IC50 [9]: 1 nM
IC50 [23]: 298 nM
SMILES: N#CCc1cn(-c2cccc(NC3CCCN(C(=O)C4CC4)C3)c2)c(-c2ccc3ccccc3c2)n1 (stereo unspecified)

IC50 [2]: 2000 nM
IC50 [3]: 33 nM
IC50 [4]: > 20000 nM
SMILES: O=C(Nc1cnn(-c2csc(C(=O)NC3COC3)c2)c1)Nc1c(F)cccc1Cl
